# Read-outs that look alike come from different tables or passages of the source.
# What was measured:
# IBS patients [1] = test: 12-week placebo-controlled clinical study of alosetron (1, 2, 4 or 8 mg BID) in nonconstipated IBS patients; type: in vivo, human; conditions: for % Responders (adequate relief of IBS pain and discomfort): 12 weeks; for % Days with Urgency / Stool # per day / Stool Consistentcy: mean, week 9-12 interval; for Stool Consistentcy: score 1= very hard to 5= watery; for % Weeks with adequate relief: median
# Procedure: Three hundred and seventy IBS patients were randomised for study: 80 were randomised to treatment with placebo BID, 72 to 1 mg BID alosetron, 74 to 2 mg BID alosetron, 76 to 4 mg BID alosetron and 68 to 8 mg BID alosetron. […] Patients were required to have symptoms which fulfilled the Rome Criteria for IBS (5) for at least 6 months. […] Daily and weekly symptom data were collected using a recently described electronic touch-tone telephone based system (24,25). Patients underwent a 2 week screening period with no IBS treatment to ensure sufficient baseline level of abdominal pain as well as compliance with the data collection system. Pain was assessed daily on a 5 point scale (0=none; 1=mild; 2=moderate; 3=intense; 4=severe). Average baseline pain over the 2 week screening period was required to be between 1.5-3.3, inclusive, and at least 4 days with at least moderate pain was required for enrolment into the study. Stool consistency data were also collected (1=very hard; 2=hard; 3=formed; 4=loose; and 5=watery). During the screening period an average stool consistency score of ≧2.5 was required for entry into the study in order to exclude those with predominant constipation. Following the screening period, eligible patients were randomised with equal allocation to 12 weeks of study medication (BID) of placebo or alosetron 1, 2, 4 or 8 mg taken prior to meals. Patients were followed for 2 weeks post-treatment. During the screening period, treatment phase and follow-up period, patients were asked daily questions about their IBS symptoms. Once every 7 days, during the treatment phase of the study, patients responded to an additional question as to whether they had obtained adequate relief of their IBS-related abdominal pain and discomfort during the previous 7 days. For this study, a responder was prospectively defined as a patient who completed the treatment phase of the study and reported adequate relief of their IBS pain and discomfort for at least 6 weeks. […] In addition, a monthly responder was defined as a patient who reported adequate relief of their IBS pain and discomfort for at least 2 weeks per month. For the monthly analysis, a last observation carried forward procedure was employed, whereby a month with all missing weeks was assigned the number of weeks with adequate relief from the previous non-missing month. Thus, this analysis satisfied the Intent-to-Treat principle by including all patients and months. Treatment groups were compared for the proportion of patients defined as responders, for both endpoints, using a Mantel-Haenszel test stratified for investigator cluster. Finally, the proportion of weeks with adequate relief was compared between treatment groups using a log-rank test. Daily stool consistency scores and daily number of bowel movements were averaged over the baseline, weekly for weeks 1-4, and monthly (weeks 1-4, 5-8, and 9-12) intervals. In addition, the proportion of days patients experienced a sense of urgency was calculated over the monthly and weekly intervals. For the monthly intervals, the treatment groups were compared for change from baseline using a van Elteren test adjusted for investigator cluster. For the weekly intervals, the treatment groups were compared at each week using a van Elteren test adjusted for-investigator cluster.
# IBS patients [2] = conditions: cited from earlier work
# normal volunteers = conditions: cited from earlier work
# [3] = female patients, alosetron 1 mg BID
# [4] = female patients, alosetron 1 mg BID, month 1
# [5] = female patients, alosetron 1 mg BID, month 2
# [6] = female patients, alosetron 1 mg BID, month 3
# [7] = female patients, alosetron 2 mg BID
# [8] = female patients, alosetron 4 mg BID
# [9] = female patients, alosetron 8 mg BID
smiles,measurement,setting,value
"Cc1[nH]cnc1CN1CCc2c(c3ccccc3n2C)C1=O [Alosetron, 2,3,4,5-tetrahydro-5-methyl-2-[(5-methyl-1 H-imidazol-4-yl)methyl]-1H-pyrido[4,3-b]indol-1-one]",abdominal pain and bowel function,IBS patients [1]; female IBS patients,significantly improved
same,more responders for adequate relief as compared to placebo,IBS patients [1]; [3],27%
same,% Responders (adequate relief of IBS pain and discomfort),IBS patients [1]; [3],60%
same,monthly adequate relief,"IBS patients [1]; female patients, alosetron 1 mg BID, each month",statistically significant improvement
same,"% Responders, monthly intervals (adequate relief)",IBS patients [1]; [4],53%
same,increase in monthly responders above placebo,IBS patients [1]; [4],21%
same,"% Responders, monthly intervals (adequate relief)",IBS patients [1]; [5],62%
same,increase in monthly responders above placebo,IBS patients [1]; [5],20%
same,"% Responders, monthly intervals (adequate relief)",IBS patients [1]; [6],60%
same,increase in monthly responders above placebo,IBS patients [1]; [6],24%
same,% Responders (adequate relief of IBS pain and discomfort),IBS patients [1]; [7],59%
same,% Responders (adequate relief of IBS pain and discomfort),IBS patients [1]; [8],51%
same,% Responders (adequate relief of IBS pain and discomfort),IBS patients [1]; [9],52%
same,time of treatment after which a statistically significant benefit over placebo in bowel parameters was achieved,"IBS patients [1]; female patients, benefit persisted throughout 12 week treatment",1 week
same,% Days with Urgency,IBS patients [1]; [3],33.0%
same,Stool # per day,IBS patients [1]; [3],1.4
same,Stool Consistentcy,IBS patients [1]; [3],2.1
same,% Days with Urgency,IBS patients [1]; [7],35.9%
same,Stool # per day,IBS patients [1]; [7],1.7
same,Stool Consistentcy,IBS patients [1]; [7],2.2
same,% Days with Urgency,IBS patients [1]; [8],37.8%
same,Stool # per day,IBS patients [1]; [8],1.8
same,Stool Consistentcy,IBS patients [1]; [8],2.4
same,% Days with Urgency,IBS patients [1]; [9],41.5%
same,Stool # per day,IBS patients [1]; [9],1.3
same,Stool Consistentcy,IBS patients [1]; [9],1.8
same,% Weeks with adequate relief,IBS patients [1]; [3],58%
same,% Weeks with adequate relief,IBS patients [1]; [7],50%
same,% Weeks with adequate relief,IBS patients [1]; [8],50%
same,% Weeks with adequate relief,IBS patients [1]; [9],50%
same,"stool consistency, bowel movement frequency and proportion of days with urgency as compared to placebo","IBS patients [1]; female patients, most doses of alosetron",significantly improved
same,proportion of weeks with adequate relief,IBS patients [1]; male patients,no meaningful benefit
same,% Responders (adequate relief of IBS pain and discomfort),"IBS patients [1]; male patients, alosetron 1 mg BID",20%
same,% Responders (adequate relief of IBS pain and discomfort),"IBS patients [1]; male patients, alosetron 2 mg BID",50%
same,% Responders (adequate relief of IBS pain and discomfort),"IBS patients [1]; male patients, alosetron 4 mg BID",54%
same,% Responders (adequate relief of IBS pain and discomfort),"IBS patients [1]; male patients, alosetron 8 mg BID",52%
same,responders for adequate relief relative to placebo,"IBS patients [1]; male population, any dose of alosetron",No meaningful improvement relative to placebo
same,"bowel-related functions with the exception of stool consistency, versus placebo",IBS patients [1]; males,no significant improvement over placebo
same,monthly adequate relief relative to placebo,"IBS patients [1]; males, any month, any dose of alosetron",No improvement relative to placebo
same,stool consistency,"IBS patients [1]; males, doses of alosetron higher than 1 mg BID",improved significantly
same,tolerability,IBS patients [1]; nonconstipated female IBS patients,well tolerated
same,colonic transit,"IBS patients [2]; IBS patients, preliminary reports",slow colonic transit
same,abdominal pain,IBS patients [2]; preliminary reports,improve abdominal pain
CN1C2CCCC1CC(NC(=O)c1nn(C)c3ccccc13)C2 (stereo not shown) [granisetron],post-prandial motor activity,IBS patients [2]; IBS patients,reduce post-prandial motor activity
same,rectal sensitivity,IBS patients [2]; IBS patients,decrease in rectal sensitivity
Cc1nccn1CC1CCc2c(c3ccccc3n2C)C1=O (stereo not shown) [ondansetron],contractile response of the colon,"normal volunteers; healthy volunteers, early postprandial period",inhibits the contractile response of the colon
same,colonic transit,normal volunteers; normal volunteers,slow colonic transit
same,stool consistency,IBS patients [2]; diarrhoea-predominant IBS patients,improves stool consistency
same,rectal compliance,IBS patients [2]; patients with IBS,increases rectal compliance

# From patent US6429209B2, “Methods for treating irritable bowel syndrome” (SmithKline Beecham Corporation, priority 1997, dated 2002)
